In US20210121418A1, “TREATMENT OF PROTEINURIA” (SYNACT PHARMA APS, priority 2018, published 2021):

Key:
[1] = clinical; settings: male, human, plasma
[2] = tested on: melanocytes; settings: cited from earlier work
[3] = tested on: CYP1A2; assay: CYP1A2 induction in human hepatocyte; format: in vitro ADME; settings: 10 μM
[4] = tested on: MC1R; settings: cited from earlier work
[5] = tested on: experimental inflammatory arthritis; settings: in vivo; cited from earlier work
[6] = Phase I Part IV, 14-day repeated dose, oral suspension (PK and safety); settings: for C Max (mean +/− SD, N = 9) / C Trough (Mean +/− SD, N = 9): steady conditions
[7] = tested on: Passive Heymann Nephritis; assay: Passive Heymann Nephritis, experiment 2 (oral gavage vs ACTH(1-24)); format: in vivo, rat; settings: 4 weeks treatment
Experimental: Passive Heymann Nephritis was introduced to Male Sprague-Dawley rats by administration of anti-Fx1A serum (PTX-002S, Probetex, San Antonio, Tex., USA) Probetex, lot 169-6H) on study day 0 (1 ml serum) and on study day 7 (0.25 serum) into the jugular vein by slow injection during isoflurane anaesthesia. […] In another experiment (experiment 2) test compound 1 was given once daily by oral gavage. […] In this experiment treatment effect of test compound 1 was compared to the effect of ACTH(1-24) as ACTH from the literature has been described to have treatment effects on proteinuria in the applied experimental model. […] Likewise, the urine concentration of creatinine and albumin were determined and so was the volume of the 24-hours urine production. The blood sample was taken from the abdominal vein during pentobarbital (0.2-0.3 mL/rat ip; Dolethal, Vetoquinol via […], France). The collected blood was transferred into tubes coated with EDTA and centrifuged (10 minutes, 1000 g, 4° C.) for plasma collection. Plasma samples were stored at -80° C. until quantification of creatinine and Albumin. […] Statistical analyses were made by standard unpaired t-test, with p<0.05 considered statistical significant

[8] = tested on: MC3R; settings: cited from earlier work
[9] = Effect of meal timing and apple juice on absorption of the suspension; format: in vivo
Experimental: The effect of food intake on the absorption of AP1189 in the current suspension formulation has not been systematically evaluated. However, it has been shown that the plasma profile of the compound, whether the first meal was served 1 hour or 4 hours post-dosing in the fasting state, is very similar.

[10] = tested on: Passive Heymann Nephritis; assay: Passive Heymann Nephritis, experiment 1 (ip dosing); format: in vivo, rat; settings: for FEAlb (fractional albumin excretion) reduced by: 10 mg/kg ip once daily; for proteinuria compared to control rats (vehicle): day 28 and day 42
Experimental: Passive Heymann Nephritis was introduced to Male Sprague-Dawley rats by administration of anti-Fx1A serum (PTX-002S, Probetex, San Antonio, Tex., USA) Probetex, lot 169-6H) on study day 0 (1 ml serum) and on study day 7 (0.25 serum) into the jugular vein by slow injection during isoflurane anaesthesia. […] Pharmacological intervention with control compound or test compound was initiated on day 14.
In one experiment (experiment 1) test compound 1 dissolved in isotonic saline was given once daily by intraperitoneal (ip) injections at a dose of 10 mg/kg (n=12) with animals treated with isotonic saline injections as controls (n=12).
In experiment 1 twenty-four hours urine collection were performed at three occasions, at day 14 following induction of nephritis, i.e. at the time point where pharmacological intervention was initiated, at day 28 and at day 42 following induction of nephritis. For urine collection the rats were placed in metabolic cages followed by a blood sample for measurement of plasma concentrations of creatinine and albumin. Likewise, the urine concentration of creatinine and albumin were determined and so was the volume of the 24-hours urine production.
The blood sample was taken from the abdominal vein during pentobarbital (0.2-0.3 mL/rat ip; Dolethal, Vetoquinol via Centravet, Lapalisse, France). The collected blood was transferred into tubes coated with EDTA and centrifuged (10 minutes, 1000 g, 4° C.) for plasma collection. Plasma samples were stored at −80° C. until quantification of creatinine and Albumin.
Albumin and creatinine in urine and plasma were quantified using a ABX Pentra 400 Clinical Chemistry analyzer (HORIBA).
Albumin excretion rate was determined as follows:
24 hours urine production×concentration of Albumin in urine.
Fractional Albumin excretion was determined as follows:
((Urine concentration of […]×24 hours urine production)/plasma concentration of albumin)/Creatinine Clearance×100
All data presented as mean±Standard error of mean (SE). Statistical analyses were made by standard unpaired t-test, with p<0.05 considered statistical significant

[11] = tested on: macrophages; settings: cited from earlier work
[12] = tested on: peritonitis; settings: oral; cited from earlier work
[13] = clinical; settings: human, plasma, oral, 200 mg
[14] = Phase I Part I, single ascending dose, oral suspension (PK and safety)

Compound `NC(N)=N/N=C/C=C/c1cccn1-c1ccccc1[N+](=O)[O-]` [AP1189, (E)-N-trans-{3-[1-(2-nitrophenyl)-1H-pyrrol-2-yl]-allylidene}-aminoguanidium acetate] has a Vd/F ([1]; oral) of 556 to 784 L, a half-life ([1]; oral) of about 20 h and a Tmax ([1]; po) of 1 to 4 h. For the same compound, the melanogenesis [2] was “no melanogenesis was induced”, the CYP1A2 induction [3] was “signal for CYP1A2 induction has been observed” and the ERK1/2 phosphorylation [4] was “cause ERK1/2 phosphorylation”. The “canonical cAMP generation” value [4] was “does not induce canonical cAMP generation”, the “macroscopic and histological parameters of joint disruption” value [5] was “significant reduction of macroscopic and histological parameters of joint disruption” and the “C Max (mean +/− SD, N = 9)” value ([6]; 50 mg once daily) was 180 ± 38 ng/mL. For the same compound, the “C Trough (Mean +/− SD, N = 9)” value ([6]; 50 mg once daily) was 46 ± 14 ng/mL, the “C Max (mean +/− SD, N = 9)” value ([6]; 100 mg once daily) was 427 ± 76 ng/mL and the “C Trough (Mean +/− SD, N = 9)” value ([6]; 100 mg once daily) was 100 ± 25 ng/mL. The “exposure at maximum administrated dose above expected therapeutic exposure level” value ([6]; 200 mg) was 5 ×, the “exposure based on Cmax vs expected therapeutic range” value ([6]; 200 mg, group) was at most 5 × and the “exposure based on Cmax vs expected therapeutic range” value ([6]; 200 mg, individual with the highest exposure) was “more than 7 ×”. The “C Trough (Mean +/− SD, N = 9)” value ([6]; 300 mg once daily) was 186 ± 45 ng/mL, the “severe or serious adverse events” value ([6]; 50, 100 or 200 mg once daily, 14 days) was “No severe AEs nor serious AEs were reported” and the steady state achieved ([6]; Cohort 1, 50 mg once daily) was 7 days. The “peak increase compared to cohort 1” value ([6]; Cohort 2, 100 mg vs 50 mg) was “approximately 2 fold”, the “subjects with isolated increases in aminotransferases” value ([6]; Cohort 3 (200 mg), treated with active) was 3 subjects and the “time Cmax was reached post dosing” value ([6]; Cohort 3, 200 mg once daily) was 1 to 2 h. For the same compound, the safety profile ([6]; for 50 mg or 100 mg doses for four weeks) was “good safety profile”, the “TEAEs considered possibly related to the study treatment” value ([6]; gastrointestinal, 50 mg and 200 mg dose levels) was 4 events and the “QTcF, repeated standard 12 lead safety ECG” value ([6]; in vivo) was “No individual QTcF clinically significant values were observed”. For the same compound, the “GFR (creatinine clearance)” value ([7]; 20 mg/kg oral gavage) was 3.12 ± 0.14 mL/min, the “fraction albumin excretion (FEAlb)” value ([7]; 20 mg/kg oral gavage) was 0.045±0.04% and the “fraction albumin excretion (FEAlb)” value ([7]; 40 mg/kg oral gavage) was 0.35±0.05%. The ERK1/2 phosphorylation [8] was “cause ERK1/2 phosphorylation”, the “canonical cAMP generation” value [8] was “does not induce canonical cAMP generation” and the “absorption with a glass of apple juice immediately after dosing” value [9] was “does not reduce the absorption”. The “plasma profile, first meal 1 hour or 4 hours post-dosing” value ([9]; dosing in the fasting state) was “very similar”, the “reduction in albumin excretion rate” value ([10]; 10 mg/kg ip once daily from day 14, day 28) was 31±8% and the “reduction in albumin excretion rate” value ([10]; 10 mg/kg ip once daily from day 14, day 42) was 48±10%. The “FEAlb (fractional albumin excretion) reduced by” value ([10]; day 28) was 48±5%, the “FEAlb (fractional albumin excretion) reduced by” value ([10]; day 42) was 45±11% and the “proteinuria compared to control rats (vehicle)” value [10] was “significantly reduces proteinuria”. For the same compound, the “proteinuria compared to control rats (vehicle)” value ([10]; listed as test compound 1) was “significant reduction in proteinuria”, the “reduction in albumin excretion rate” value ([10]; day 482 as printed in FIG. 1 legend) was 48±10% and the cytokine release [11] was “reduce cytokine release”. The “anti-inflammatory actions in peritonitis” value [12] was “elicits anti-inflammatory actions in peritonitis and accelerated the resolution phase”, the Cmax [13] was at most 900 ng/mL and the “Cmax and AUCs, female compared to male subjects” value ([14]; 400 mg) was “slightly increased”. For the same compound, the “apparent volume of distribution, female compared to male” value ([14]; 400 mg) was “similar”, the “exposure at maximum administrated dose above expected therapeutic exposure level” value ([14]; 800 mg) was “more than 10 ×” and the “increase of ALT above the normal upper value” ([14]; 400-800 mg) was “up to 1.6”. The “TEAEs considered related to the study treatment” value ([14]; after administration of 200 to 800 mg) was 21 events, the apparent clearance ([14]; female subjects, 400 mg) was 17.26 L/h and the “QTcF and other cardiac parameters, 24-hours Holter ECG” value ([14]; in vivo) was “No AP1189 associated increases in QTcF”. For the same compound, the “changes in vital signs” value ([14]; in vivo) was “No treatment-related changes in vital signs”, the “frequency of related gastrointestinal TEAEs vs dose” value ([14]; in vivo) was “increased with the dose” and the “subjects with isolated increases in aminotransferases” value ([14]; male subjects on active IMP, 400, 600, 800 mg) was 4 subjects. The “inter-individual variability for Cmax and AUCs” value ([14]; male subjects, 50-800 mg) was under 36% and the “severe or serious adverse events” value ([14]; single doses 15-800 mg) was “No severe AEs nor serious AEs were reported”.
